From ChEMBL document CHEMBL6182876, “Design, synthesis and preliminary structure-activity relationship of 2-iminothiazolidine-4-one derivatives against Schistosoma japonicum in vitro and in vivo” (Eur J Med Chem, 2025)
Activity calls are given as the source filed them. The rule behind the calls is not given here.

Experiments:
Schistosoma japonicum [1] = assay: Anti-schistosomal activity against adult Schistosoma japonicum assessed as worm mortality at 100 uM measured at 4 hrs relative to control; assay type: functional
Schistosoma japonicum [2] = assay: Anti-schistosomal activity against adult Schistosoma japonicum assessed as worm mortality at 100 uM measured at 8 hrs relative to control; assay type: functional
Schistosoma japonicum [3] = assay: Anti-schistosomal activity against adult Schistosoma japonicum assessed as worm mortality at 100 uM measured at 12 hrs relative to control; assay type: functional
Schistosoma japonicum [4] = assay: Anti-schistosomal activity against adult Schistosoma japonicum assessed as worm mortality at 100 uM measured at 24 hrs relative to control; assay type: functional
Schistosoma japonicum [5] = assay: Anti-schistosomal activity against adult Schistosoma japonicum assessed as worm mortality at 100 uM measured at 48 hrs relative to control; assay type: functional
Schistosoma japonicum [6] = assay: Anti-schistosomal activity against adult Schistosoma japonicum assessed as worm mortality at 100 uM measured at 72 hrs relative to control; assay type: functional
Schistosoma japonicum [7] = assay: Anti-schistosomal activity against adult Schistosoma japonicum measured at 72 hrs; assay type: functional, organism-based
Schistosoma japonicum [8] = assay: Anti-schistosomal activity against adult Schistosoma japonicum infected in ICR mouse assessed as number of worms at 25 mg/kg, ip administered for 7 days; assay type: functional; conditions: time 7 day
Schistosoma japonicum [9] = assay: Anti-schistosomal activity against juvenile Schistosoma japonicum infected in ICR mouse assessed as number of worms at 25 mg/kg, ip administered for 7 days; assay type: functional; conditions: time 7 day
Schistosoma japonicum [10] = assay: Anti-schistosomal activity against adult Schistosoma japonicum infected in ICR mouse assessed as reduction in worm burden at 25 mg/kg, ip administered for 7 days; assay type: functional; parameters: scale not given: the % may be the effect or the level left; conditions: time 7 day
Schistosoma japonicum [11] = assay: Anti-schistosomal activity against juvenile Schistosoma japonicum infected in ICR mouse assessed as reduction in worm burden at 25 mg/kg, ip administered for 7 days; assay type: functional; parameters: scale not given: the % may be the effect or the level left; conditions: time 7 day
[12] = Toxicity in ICR mouse infected with Schistosoma japonicum assessed as serum BUN level at 25 mg/kg, ip administered for 7 days; assay type: organism-based; conditions: in vivo, 168 h, time 7 day
Schistosoma japonicum [13] = assay: Anti-schistosomal activity against adult Schistosoma japonicum assessed as muscle contractions at 50 uM incubated for 1 to 72 hrs by optical microscopic analysis; assay type: functional, organism-based; conditions: time 1-72 hrs
Schistosoma japonicum [14] = assay: Anti-schistosomal activity against adult Schistosoma japonicum assessed as mortality by measuring body twisting at 50 uM incubated for 1 to 72 hrs by optical microscopic analysis; assay type: functional, organism-based; conditions: time 1-72 hrs
Schistosoma japonicum [15] = assay: Anti-schistosomal activity against adult Schistosoma japonicum assessed as darkened body pigmentation at 50 uM incubated for 1 to 72 hrs by optical microscopic analysis; assay type: functional, organism-based; conditions: time 1-72 hrs
Schistosoma japonicum [16] = assay: Anti-schistosomal activity against adult Schistosoma japonicum assessed as reduction in oviposition at 50 uM incubated for 72 hrs by optical microscopic analysis; assay type: functional, organism-based
Schistosoma japonicum [17] = assay: Anti-schistosomal activity against female adult Schistosoma japonicum assessed as loss of tegumental architecture at 25 uM measured after 72 hrs by SEM analysis; assay type: functional, organism-based
Schistosoma japonicum [18] = assay: Anti-schistosomal activity against male adult Schistosoma japonicum assessed as loss of tegumental architecture at 25 uM measured after 72 hrs by SEM analysis; assay type: functional, organism-based
Schistosoma japonicum [19] = assay: Anti-schistosomal activity against adult Schistosoma japonicum assessed as collapse of sucker musculature at 25 uM measured for 72 hrs by SEM analysis; assay type: functional, organism-based
Schistosoma japonicum [20] = assay: Anti-schistosomal activity against adult Schistosoma japonicum assessed as disintegration of tegument at 25 uM measured for 72 hrs by SEM analysis; assay type: functional, organism-based
Schistosoma japonicum [21] = assay: Anti-schistosomal activity against male adult Schistosoma japonicum assessed as disruption of tegument spines on the oral suckers at 25 uM measured for 72 hrs by SEM analysis; assay type: functional, organism-based
Schistosoma japonicum [22] = assay: Anti-schistosomal activity against male adult Schistosoma japonicum assessed as appearance of intact tegument surface at 25 uM measured for 72 hrs by SEM analysis; assay type: functional, organism-based
Schistosoma japonicum [23] = assay: Anti-schistosomal activity against male adult Schistosoma japonicum assessed as appearance of sensory papillae at 25 uM measured for 72 hrs by SEM analysis; assay type: functional, organism-based
Schistosoma japonicum [24] = assay: Anti-schistosomal activity against male adult Schistosoma japonicum assessed as appearance of parallel wrinkles at 25 uM measured for 72 hrs by SEM analysis; assay type: functional, organism-based
Schistosoma japonicum [25] = assay: Anti-schistosomal activity against male adult Schistosoma japonicum assessed as surface destabilization at 25 uM measured for 72 hrs by SEM analysis; assay type: functional, organism-based
Schistosoma japonicum [26] = assay: Anti-schistosomal activity against male adult Schistosoma japonicum assessed as complete loss of sucker-associated muscular architecture at 25 uM measured for 72 hrs by SEM analysis; assay type: functional, organism-based
Schistosoma japonicum [27] = assay: Anti-schistosomal activity against male adult Schistosoma japonicum assessed as appearance of degradation of subtegumental matrix at 25 uM measured for 72 hrs by SEM analysis; assay type: functional, organism-based
Schistosoma japonicum [28] = assay: Anti-schistosomal activity against juvenile Schistosoma japonicum infected in ICR mouse assessed as number of eggs in hepatocyte at 25 mg/kg, ip administered for 7 days; assay type: functional, organism-based; conditions: time 7.0 day
Schistosoma japonicum [29] = assay: Anti-schistosomal activity against juvenile Schistosoma japonicum infected in ICR mouse assessed as cellular vacuolization at 25 mg/kg, ip administered for 7 days; assay type: functional, organism-based; conditions: time 7.0 day
Schistosoma japonicum [30] = assay: Anti-schistosomal activity against juvenile Schistosoma japonicum infected in ICR mouse assessed as accumulation of inflammatory cells at 25 mg/kg, ip administered for 7 days; assay type: functional, organism-based; conditions: time 7.0 day
[31] = Acute toxicity in po dosed ICR mouse assessed as lethal dose; assay type: organism-based; conditions: in vivo
[32] = Acute toxicity in ICR mouse assessed as liver damage at 1144 mg/kg, po administered for 7 days by H and E staining based analysis; assay type: organism-based; conditions: in vivo, 168 h, time 7 day
[33] = Acute toxicity in ICR mouse assessed as TBIL level at 1144 mg/kg, po administered for 7 days; assay type: organism-based; conditions: in vivo, 168 h, time 7 day
[34] = Acute toxicity in ICR mouse assessed as AST level at 1144 mg/kg, po administered for 7 days; assay type: organism-based; conditions: in vivo, 168 h, time 7 day
[35] = Acute toxicity in ICR mouse assessed as ALT level at 1144 mg/kg, po administered for 7 days; assay type: organism-based; conditions: in vivo, 168 h, time 7 day
[36] = Acute toxicity in ICR mouse assessed as BUN level at 1144 mg/kg, po administered for 7 days; assay type: organism-based; conditions: in vivo, 168 h, time 7 day
Schistosoma japonicum [37] = assay: Anti-schistosomal activity against juvenile Schistosoma japonicum infected in ICR mouse assessed as somatic degeneration at 25 mg/kg, ip administered for 7 days; assay type: functional, organism-based; conditions: time 7.0 day

CCOC(=O)/C=C1\S/C(=N\c2ccccc2Cl)N(CCCN2CCN(C)CC2)C1=O
mortality at 100 µM (Schistosoma japonicum [1]): 10% | mortality at 100 µM (Schistosoma japonicum [2]): 40% | mortality at 100 µM (Schistosoma japonicum [3]): 100% | mortality at 100 µM (Schistosoma japonicum [4]): 100% | mortality at 100 µM (Schistosoma japonicum [5]): 100% | mortality at 100 µM (Schistosoma japonicum [6]): 100% | IC50 (Schistosoma japonicum [7]): 30.4 µM | Activity (Schistosoma japonicum [8]): 37% | Activity (Schistosoma japonicum [9]): 30% | Activity (Schistosoma japonicum [10]): 26% | Activity (Schistosoma japonicum [11]): 30% | Activity [12]: 7.9 mM

CCOC(=O)/C=C1\S/C(=N\c2ccc(C(F)(F)F)cc2)N(CCCN2CCN(C)CC2)C1=O
mortality at 100 µM (Schistosoma japonicum [1]): 20% | mortality at 100 µM (Schistosoma japonicum [2]): 50% | mortality at 100 µM (Schistosoma japonicum [3]): 100% | mortality at 100 µM (Schistosoma japonicum [4]): 100% | mortality at 100 µM (Schistosoma japonicum [5]): 100% | mortality at 100 µM (Schistosoma japonicum [6]): 100% | IC50 (Schistosoma japonicum [7]): 25.3 µM | Activity (Schistosoma japonicum [13]): Active | Activity (Schistosoma japonicum [14]): Active | Activity (Schistosoma japonicum [15]): Active | Activity (Schistosoma japonicum [16]): Active | Activity (Schistosoma japonicum [17]): Active | Activity (Schistosoma japonicum [18]): Active | Activity (Schistosoma japonicum [19]): Active | Activity (Schistosoma japonicum [20]): Active | Activity (Schistosoma japonicum [21]): Active | Activity (Schistosoma japonicum [22]): Active | Activity (Schistosoma japonicum [23]): Active | Activity (Schistosoma japonicum [24]): Active | Activity (Schistosoma japonicum [25]): Active | Activity (Schistosoma japonicum [26]): Active | Activity (Schistosoma japonicum [27]): Active | Activity (Schistosoma japonicum [8]): 24% | Activity (Schistosoma japonicum [9]): 32% | Activity (Schistosoma japonicum [10]): 52% | Activity (Schistosoma japonicum [11]): 26% | Activity [12]: 7.22 mM | Activity (Schistosoma japonicum [28]): Active | Activity (Schistosoma japonicum [29]): Active | Activity (Schistosoma japonicum [30]): Active | LD50 [31]: 1400 mg/kg | Activity [32]: Non-toxic | Activity [33]: 3.24 µM | Activity [34]: 41 U/L | Activity [35]: 142 U/L | Activity [36]: 9.6 mM

CCOC(=O)/C=C1\S/C(=N\c2ccccc2)N(Cc2ccccc2)C1=O
mortality at 100 µM (Schistosoma japonicum [1]): 0% | mortality at 100 µM (Schistosoma japonicum [2]): 0% | mortality at 100 µM (Schistosoma japonicum [3]): 0% | mortality at 100 µM (Schistosoma japonicum [4]): 0% | mortality at 100 µM (Schistosoma japonicum [5]): 0% | mortality at 100 µM (Schistosoma japonicum [6]): 0% | IC50 (Schistosoma japonicum [7]): > 100 µM

CCOC(=O)/C=C1\S/C(=N\c2ccccc2Br)N(CCCN2CCN(C)CC2)C1=O
mortality at 100 µM (Schistosoma japonicum [1]): 0% | mortality at 100 µM (Schistosoma japonicum [2]): 20% | mortality at 100 µM (Schistosoma japonicum [3]): 60% | mortality at 100 µM (Schistosoma japonicum [4]): 100% | mortality at 100 µM (Schistosoma japonicum [5]): 100% | mortality at 100 µM (Schistosoma japonicum [6]): 100% | IC50 (Schistosoma japonicum [7]): 30.9 µM

CCOC(=O)/C=C1\S/C(=N\c2ccc(Cl)cc2)N(CCCN2CCN(C)CC2)C1=O
mortality at 100 µM (Schistosoma japonicum [1]): 0% | mortality at 100 µM (Schistosoma japonicum [2]): 40% | mortality at 100 µM (Schistosoma japonicum [3]): 80% | mortality at 100 µM (Schistosoma japonicum [4]): 100% | mortality at 100 µM (Schistosoma japonicum [5]): 100% | mortality at 100 µM (Schistosoma japonicum [6]): 100% | IC50 (Schistosoma japonicum [7]): 41.8 µM

CCOC(=O)/C=C1\S/C(=N\c2ccccc2)N(CCN2CCCC2)C1=O
mortality at 100 µM (Schistosoma japonicum [1]): 0% | mortality at 100 µM (Schistosoma japonicum [2]): 0% | mortality at 100 µM (Schistosoma japonicum [3]): 0% | mortality at 100 µM (Schistosoma japonicum [4]): 0% | mortality at 100 µM (Schistosoma japonicum [5]): 50% | mortality at 100 µM (Schistosoma japonicum [6]): 50% | IC50 (Schistosoma japonicum [7]): > 100 µM

CCOC(=O)/C=C1\S/C(=N\c2cccc(Br)c2)N(CCCN2CCN(C)CC2)C1=O
mortality at 100 µM (Schistosoma japonicum [1]): 0% | mortality at 100 µM (Schistosoma japonicum [2]): 30% | mortality at 100 µM (Schistosoma japonicum [3]): 80% | mortality at 100 µM (Schistosoma japonicum [4]): 100% | mortality at 100 µM (Schistosoma japonicum [5]): 100% | mortality at 100 µM (Schistosoma japonicum [6]): 100% | IC50 (Schistosoma japonicum [7]): 35.1 µM

CCOC(=O)/C=C1\S/C(=N\c2cccc(Cl)c2)N(CCCN2CCN(C)CC2)C1=O
mortality at 100 µM (Schistosoma japonicum [1]): 10% | mortality at 100 µM (Schistosoma japonicum [2]): 30% | mortality at 100 µM (Schistosoma japonicum [3]): 100% | mortality at 100 µM (Schistosoma japonicum [4]): 100% | mortality at 100 µM (Schistosoma japonicum [5]): 100% | mortality at 100 µM (Schistosoma japonicum [6]): 100% | IC50 (Schistosoma japonicum [7]): 41.2 µM

O=C(C1CCCCC1)N1CC(=O)N2CCc3ccccc3C2C1 (stereo not given) [PRAZIQUANTEL]
mortality at 100 µM (Schistosoma japonicum [1]): 100% | mortality at 100 µM (Schistosoma japonicum [2]): 100% | mortality at 100 µM (Schistosoma japonicum [3]): 100% | mortality at 100 µM (Schistosoma japonicum [4]): 100% | mortality at 100 µM (Schistosoma japonicum [5]): 100% | mortality at 100 µM (Schistosoma japonicum [6]): 100% | IC50 (Schistosoma japonicum [7]): 43.8 µM | Activity (Schistosoma japonicum [17]): Active | Activity (Schistosoma japonicum [18]): Active | Activity (Schistosoma japonicum [22]): Active | Activity (Schistosoma japonicum [23]): Active | Activity (Schistosoma japonicum [24]): Active | Activity (Schistosoma japonicum [25]): Active | Activity (Schistosoma japonicum [26]): Active | Activity (Schistosoma japonicum [27]): Active | Activity (Schistosoma japonicum [8]): 7% | Activity (Schistosoma japonicum [9]): 22% | Activity (Schistosoma japonicum [10]): 86% | Activity (Schistosoma japonicum [11]): 49% | Activity (Schistosoma japonicum [37]): Active | Activity [12]: 22.1 mM | Activity [33]: 3.76 µM | Activity [34]: 57 U/L | Activity [35]: 136 U/L | Activity [36]: 7.93 mM
